Tests used:
melanoma cells B16F10 = assay: MTS cell viability assay, B16F10; assay type: cell-based; settings: Mus musculus; for IC50: B16-F10, Table 5; for IC90: B16-F10, Table 6
Description: (§1) Human carcinoid cells, NCI-H727 (ATCC, Manassas, Va.), were cultured under standard conditions. Squamous cell carcinoma of head and neck cells, MDA1986 (Myers, et al. (2002) Clin. Cancer Res. 8:293) and JMAR (Swan, et al. (2003) Oral Oncol. 39:648-55); and melanoma cells lines B16F10 (ATCC, Manassas, Va.) and SKMEL28 (CLS, Eppelheim, Germany) were cultured in DMEM medium supplemented with 10% heat-inactivated fetal bovine serum (Sigma-Aldrich, St. Louis, Mo.), 1×MEM-essential amino acid, 1×MEM vitamin, and penicillin/streptomycin (Sigma-Aldrich, St. Louis, Mo.) in a humid environment of 5% CO2 at 37° C. Activity of withanolides against DRO81-1 and TT medullary thyroid cancer cells was also determined.
(§2) Cells were cultured in 96 well plates at a concentration of 1-2×10^4 cells/mL. Cell viability was assessed with the nonradioactive cell proliferation MTS assay using Cell Titer 96AQUEOUS One Solution Reagent (PROMEGA, Madison, Wis.), according to the manufacturer's instruction. After a 72-hour treatment, 20 μL of Cell Titer 96AQUEOUS One Solution Reagent were added to each well and incubated for 3 hours at 37° C. 5% CO2, and formazan absorbance was measured at 490 nm.

[1] = tested on: human melanoma SKMEL28 cells; assay: MTS cell viability assay, SKMEL28; assay type: cell-based; settings: for IC90: SK-MEL-28, Table 6
Description: as §1, §2
A cell viability MTS assay was carried out to determine the anti-cancer effect of the withanolides on human melanoma SKMEL28 cells. Cells were treated for 72 hours and cell viability was determined according to the manufacturer's instruction.

[2] = tested on: squamous cell carcinoma of head and neck cells MDA1986; assay: MTS cell viability assay, MDA1986; assay type: cell-based; settings: for IC50: Table 5; for IC90: Table 6
Description: as §1, §2

[3] = tested on: squamous cell carcinoma of head and neck cells JMAR; assay: MTS cell viability assay, JMAR; assay type: cell-based; settings: for IC50: Table 5; for IC90: Table 6
Description: as §1, §2

MRC-5 = assay: MTS cell viability assay, MRC-5; assay type: cell-based; settings: Homo sapiens, MRC5, Table 5
Ames test strain TA98 = assay: Ames test, TA98; settings: 2.5E−06 M
Ames test strain TA100 = assay: Ames test, TA100; settings: 2.5E−06 M
Ames test strain TA1535 = assay: Ames test, TA1535; settings: 2.5E−06 M
[4] = Homo sapiens, SK-MEL-28, Table 5
[5] = Table 3, treated for 72 hours, NA = no activity

SMILES	IC50 (melanoma cells B16F10) [µM]	IC50 [1, 4] [µM]	IC50 [2] [µM]	IC50 [3] [µM]	IC50 (MRC-5) [µM]	also measured
CC1=C(COC2OC(CO)C(O)C(O)C2O)C[C@H]([C@@H](C)[C@H]2CC[C@H]3[C@@H]4C[C@H](O)c5cccc(O)c5[C@H]4CC[C@]23C)OC1=O (some centres unmarked) [Compound X015]	> 25	> 25	> 25	> 25	> 25	
CC(=O)OC[C@]12C(=O)C=C[C@H](O)[C@]13O[C@@H]3C[C@H]1[C@@H]3CC[C@H]([C@H](C)[C@H]4CC(C)=C(CO)C(=O)O4)[C@@]3(C)CC[C@@H]12 [HFM-JA-336B]	0.37	0.24		1.2		IC90 (melanoma cells B16F10): 1.2 µM; IC90 ([1]; Homo sapiens): 1.16 µM; IC90 [2]: 1.2 µM; IC90 [3]: 3.1 µM
CN(N=O)C(=O)N[C@H]1C(O)O[C@H](CO)[C@@H](O)[C@@H]1O (mixture of isomers) [Streptoxotocin, reference compound]						Positive Significance (− to +++) (Ames test strain TA98; TA98 +S9): −; Positive Significance (− to +++) (Ames test strain TA98; TA98 −S9): −; Positive Significance (− to +++) (Ames test strain TA100; TA100 +S9): +++ (Very strong positive, if p < 0.001, denoted as “+++”.); Positive Significance (− to +++) (Ames test strain TA100; TA100 −S9): +++ (Very strong positive, if p < 0.001, denoted as “+++”.); Positive Significance (− to +++) (Ames test strain TA1535; TA1535 +S9): ++ (Strong positive, if p < 0.01, denoted as “++”.); Positive Significance (− to +++) (Ames test strain TA1535; TA1535 −S9): +++ (Very strong positive, if p < 0.001, denoted as “+++”.)
C=CCNC1=C2C[C@@H](C)C[C@H](OC)[C@H](O)[C@@H](C)/C=C(\C)[C@H](OC(N)=O)[C@@H](OC)/C=C\C=C(/C)C(=O)NC(=CC1=O)C2=O [17 AAG, 17-allylamino-17-demethoxygeldanamycin, reference compound]						IC50 [1, 5]: 0.23 µM
CC(=O)OCC1=C(C)C[C@H]([C@@H](C)[C@H]2CC[C@H]3[C@@H]4C[C@H]5O[C@]56[C@@H](O)C=CC(=O)[C@]6(COC(C)=O)[C@H]4CC[C@]23C)OC1=O [HFM-JA-336D]	0.37	0.27		1.45		IC90 (melanoma cells B16F10): 2.5 µM; IC90 ([1]; Homo sapiens): 0.42 µM; IC90 [2]: 2.5 µM; IC90 [3]: 7.1 µM
CC1=C(COC2OC(CO)C(OC3OC(C)C(O)C(O)C3O)C(O)C2O)C(=O)O[C@@H]([C@@H](C)[C@H]2CC[C@H]3[C@@H]4C[C@H]5O[C@]56[C@@H](O)C=CC(=O)[C@]6(C)[C@H]4CC[C@]23C)C1 (some centres unmarked) [Compound X011]	> 25	17.4	8.1	8.24	8.72	
CC1=C(CO)C(=O)O[C@@H]([C@@H](C)[C@H]2CC[C@H]3[C@@H]4C[C@H]5O[C@]56[C@@H](OC(=O)CN(C)C)C=CC(=O)[C@]6(C)[C@H]4CC[C@]23C)C1 [Compound X036]	4.37	2.35	1.59	3.53	3.69	
CC1=C(CO)C(=O)O[C@@](C)([C@@H](C)[C@H]2CC[C@H]3[C@@H]4CC=C5C[C@@H](OC6OC(CO)C(O)C(O)C6O)CC(=O)[C@]5(CO)[C@H]4CC[C@]23C)C1 (some centres unmarked) [Compound X012]	10.7	> 25	> 25	> 25	> 25	
CO[C@H]1CC(=O)[C@]2(C)[C@@H]3[C@@H](C[C@H]4O[C@]42[C@H]1O)[C@@H]1CC[C@H]([C@H](C)[C@H]2CC(C)=C(CO)C(=O)O2)[C@@]1(C)C[C@@H]3O [Compound X007]	5.57	11.6	8.34	12	7.33	
CC1=C(CO)C(=O)O[C@@H]([C@@H](C)[C@H]2CC[C@H]3[C@@H]4CC=C5C=CC(=O)[C@]5(C)[C@H]4CC[C@]23C)C1 [Compound X006]	19.2	> 25	> 25	19.7	> 25	
CC1=C(CO)C(=O)O[C@@H]([C@@H](C)[C@H]2CC[C@H]3[C@@H]4C[C@H]5O[C@]56[C@@H](OC(=O)N(C)C)C=CC(=O)[C@]6(CO)[C@H]4CC[C@]23C)C1 [HFM-JA-403]	0.28	2.31	2.48	0.55	0.69	
CC1=C(COC2OC(CO)C(O)C(O)C2O)C[C@H]([C@@H](C)[C@H]2CC[C@H]3[C@@H]4CC(=O)C5=C(CC[C@@H](O)C5)[C@H]4CC[C@]23C)OC1=O (some centres unmarked) [Compound X014]	> 25	> 25	> 25	> 25	> 25	
CC1=C(C)C(=O)O[C@@H]([C@@H](C)[C@H]2CC[C@H]3[C@@H]4C[C@H]5O[C@]56[C@@H](O)C=CC(=O)[C@]6(CO)[C@H]4CC[C@]23C)C1 [Compound X030B]	0.2	3.91	1.3	0.17	0.4	
CC1=C(CO)C(=O)OC(C(C)C2CCC3C4CC(O)C5(C=O)CCC(=O)C5(C)C4CCC23C)C1 (stereo not drawn) [Compound O010, 22R-5β-formyl-6β,27-dihydroxyl-1-oxo-4-norwith-24-enolide, reference compound]						IC50 [1, 5]: 17 µM
CC1=C(CO)C(=O)O[C@@H]([C@@H](C)[C@H]2CC[C@H]3[C@@H]4C[C@H]5O[C@]56[C@@H](OC(=O)c5ccc(Cl)cc5)C=CC(=O)[C@]6(CO)[C@H]4CC[C@]23C)C1 [HFM-JA-398H]	2.35	3.45	6.05	2.61	5.29	
CC1=C(COC2OC(CO)C(O)C(O)C2O)C[C@H]([C@@H](C)[C@H]2CC[C@H]3[C@@H]4CCC5=C(C(=O)C[C@H](O)C5)[C@H]4CC[C@]23C)OC1=O (some centres unmarked) [Compound X026B]	11	> 25	> 25	> 25	13.5	
CC1=C(COC2OC(CO)C(O)C(O)C2O)C[C@H]([C@@H](C)[C@H]2CC[C@H]3[C@@H]4CC=C5C[C@@H](O)C[C@H](O)[C@]5(CO)[C@H]4CC[C@]23C)OC1=O (some centres unmarked) [Compound X013]	> 25	> 25	> 25	> 25	> 25	
CC(=O)OC[C@]12C(=O)C=C[C@H](OC(=O)c3ccc(Cl)cc3)[C@]13O[C@@H]3C[C@H]1[C@@H]3CC[C@H]([C@H](C)[C@H]4CC(C)=C(COC(=O)c5ccc(Cl)cc5)C(=O)O4)[C@@]3(C)CC[C@@H]12 [HFM-JA-400]	9.04	> 25	> 25	> 25	10.8	
CC1=C(CO)C(=O)O[C@@H]([C@@H](C)[C@H]2CC[C@H]3[C@@H]4C[C@H]5O[C@]56[C@@H](O)[C@@H](O)CC(=O)[C@]6(C)[C@H]4CC[C@]23C)C1 [Viscosalactone B, reference compound]						IC50 [1, 5]: 18.9 µM
CC1=C(COC(=O)c2ccc(Cl)cc2)C(=O)O[C@@H]([C@@H](C)[C@H]2CC[C@H]3[C@@H]4C[C@H]5O[C@]56[C@@H](OC(=O)c5ccc(Cl)cc5)C=CC(=O)[C@]6(CO)[C@H]4CC[C@]23C)C1 [HFM-JA-398B]	10	> 25	> 25	10.6	7.13	
CC(=O)O[C@H]1C=CC(=O)[C@]2(CO)[C@H]3CC[C@]4(C)[C@@H]([C@H](C)[C@H]5CC(C)=C(CO)C(=O)O5)CC[C@H]4[C@@H]3C[C@H]3O[C@]132 [HFM-JA-336C]	0.69	0.57		2		IC90 (melanoma cells B16F10): 2.5 µM; IC90 ([1]; Homo sapiens): 1.21 µM; IC90 [2]: 2.5 µM; IC90 [3]: 6.5 µM
CC(=O)OCC1=C(C)C[C@H]([C@@H](C)[C@H]2CC[C@H]3[C@@H]4C[C@H]5O[C@]56[C@@H](O)C=CC(=O)[C@]6(CO)[C@H]4CC[C@]23C)OC1=O [HFM-JA-336A]	0.28	0.58		3.6		IC90 (melanoma cells B16F10): 2.7 µM; IC90 ([1]; Homo sapiens): 0.86 µM; IC90 [2]: 2.7 µM; IC90 [3]: 9.8 µM
